Reference: US20120172450A1, “USE OF JASMONATE FOR IMPROVING SKELETAL MUSCLE FUNCTION” (BROADY HEALTH SCIENCES, LLC, priority 2010, published 2012)

Test system: skeletal muscle fatigue and performance
Assay: Effect of Jasmone on Muscle Fatigue and Performance in exercising subjects
Assay type: in vivo, human
Description: Subjects ranged from 43 to 72 years old. Subjects took 50-100 micrograms of jasmone once a day. All subjects were currently performing various exercise programs. Individual data was collected as to the changes that were noted upon jasmone supplementation.
Subject one, was a person who ran and trained with weights on a regular basis. They took a simplified stress test measuring time to maximum heart rate on treadmill exertion. Pre-Jasmone time on treadmill to target heart rate was 9 minutes. Two weeks after taking Jasmone, stress test results improved to 11 minutes. After 4 weeks of jasmone protocol stress test time increased to 15 min. In addition, after 3 weeks they reported increased weight repetitions by 15 percent and within four weeks increased push ups by 20 percent with same level of exertion as before.
Subject two, was a person who ran on a regular basis. Prior to Jasmone, full exertion exercise routine consisted of approximately 2 miles at 4.5 miles per hour. After two weeks of Jasmone was able to increase routine to running time to 2.5 miles without difficulty.
Subject three (person one), was a person who biked on a regular basis. After 4 weeks of taking Jasmone they increased cycling distance by 50 percent and speed by 10 percent.
Subject four, a person reported who trained with weights on a regular basis, increased weight repetitions of 25% after 4 weeks of taking Jasmone. Subject four, a person regularly performed an exercise routine including weight machines. Prior to taking Jasmone, on a particular machine, they were able to perform 12 repetitions at 60 pds of weight. Two weeks after taking Jasmone was able to increase weight to 80 and repetitions increased to 14.
Subject five, was a person, who regularly exercised but due to travel was unable to maintain normal exercise routine during trial. […] Two examples of this include running through an airport carrying luggage and another running in extreme heat.

## CC/C=C\CC1=C(C)CCC1=O [Jasmone, jasmone]
Subject five, normal exercise routine not maintained during trial
  self-reported running ability: increased ability to run far and fast without getting winded
Subject four, after 4 weeks of taking Jasmone
  increase in weight repetitions: 25%
Subject four, after four weeks of Jasmone
  self-reported strength and endurance: felt increased strength and endurance
Subject four, two weeks after taking Jasmone, prior 12 repetitions
  repetitions on weight machine: 14
Subject four, two weeks after taking Jasmone, prior 60 pds
  weight on weight machine: 80 pds
Subject one, after 3 weeks, same level of exertion as before
  increase in weight repetitions: 15%
Subject one, after 4 weeks of jasmone, pre-Jasmone 9 minutes
  stress test time (time on treadmill to target heart rate): 15 min
Subject one, two weeks after taking Jasmone, 50-100 micrograms once a day, pre-Jasmone 9 minutes
  time on treadmill to target heart rate (simplified stress test): 11 min
Subject one, within four weeks, same level of exertion as before
  increase in push ups: 20%
Subject three (person one), after 4 weeks of taking Jasmone
  increase in cycling distance: 50%
Subject three, after 4 weeks of taking Jasmone
  increase in cycling speed: 10%
Subject two, after additional two weeks
  workout fatigue: workout fatigue continued to improve
Subject two, after two weeks of Jasmone, prior approximately 2 miles at 4.5 miles per hour
  running routine distance: 2.5 miles
